Reference: PMC11125359 (Pharmaceuticals, 2024)
Where two headings read alike, the source gives them in different places.

Key:
[1] = system: human colon cancer (Caco-2) cell line; assay: cells; format: cell-based; settings: for Viability %, Caco-2, 1st concentration: Conc.: 5a 13.45, 5d 12.64, 5e 12.29, 5f 11.81, 7a 12.72, 7f 11.24, DOX 11.50; for Viability %, Caco-2, 2nd concentration: Conc.: 5a 26.91, 5d 25.27, 5e 24.58, 5f 23.63, 7a 25.43, 7f 22.48, DOX 23.00; for Viability %, Caco-2, 3rd concentration: Conc.: 5a 53.81, 5d 50.55, 5e 49.15, 5f 47.26, 7a 50.86, 7f 44.96, DOX 46.00; for Viability %, Caco-2, 4th concentration: Conc.: 5a 107.63, 5d 101.09, 5e 98.31, 5f 94.51, 7a 101.72, 7f 89.93, DOX 91.99; for Viability %, Caco-2, 5th concentration: Conc.: 5a 215.26, 5d 202.19, 5e 196.61, 5f 189.03, 7a 203.44, 7f 179.85, DOX 183.99; for IC50: Homo sapiens, Caco-2, 48 h, MTT, mean ± SE, read-out: Cytotoxic activity IC50, Colon (Caco-2); for Therapeutic Index (TI), Colon (Caco-2): IC50 on normal cells (WI-38)/IC50 on Caco-2
Bcl-2 [2] = assay: Bcl-2 ELISA in treated A549 cells; format: cell-based, human; settings: DMSO control 9.83 ± 0.05
α-glucosidase = assay: α-Glucosidase inhibition (anti-diabetic); format: biochemical; settings: equal concentrations (1000 µg/mL); mean ± SE
[3] = Iron-reducing power (IRP); settings: equal concentrations (1000 µg/mL); mean ± SE, three replicates
Protocol: All in vitro biological activities were assessed in the tested compounds at equal concentrations (1000 µg/mL). All assays were carried out in triplicate.
In vitro biological activities
The total antioxidant capacity (TAC) was determined by analyzing the green phosphate/Mo5+ complex at a wavelength (λ) of 695 nm, following the procedure described by Prieto
et al. Samples (at each concentration) were mixed with a reagent solution containing 0.3 N sulfuric
acid, 28 mM sodium phosphate, and 4 mM ammonium molybdate. Methanol (80%) was used in place
of the sample for the blank. The tubes were sealed and incubated in a boiling water bath for 90
minutes. After cooling to room temperature, the absorbance was measured at 695 nm against the
blank. Ascorbic acid was used at the same concentrations as a standard. The antioxidant capacity was
expressed as mg gallic acid equivalent per gram weight.
The iron reducing power was determined as µg/mL using the method proposed by Oyaizu
In brief, 1ml of the tested sample (at each concentration) was combined with 1mL of 200mM
sodium phosphate buffer (pH 6.6) and 1mL of 1% potassium ferricyanide. The mixture was then
incubated at 50°C for 20 minutes, followed by the addition of 1mL of trichloroacetic acid (10%). After
centrifugation at 2000rpm for 10 minutes, the upper layer solution (2.5 mL) was mixed with 2.5 mL of double deionized water and 1mL of fresh ferric chloride (0.1%). The absorbance was measured at
700nm against a blank prepared without the sample. Ascorbic acid was used at the same
concentrations as a standard. A high absorbance at 700nm indicates a higher reducing power in the
(§1) The 1,1-Diphenyl-2-picryl-hydrazyl (DPPH) radical scavenging activities were evaluated using the method described by Rahman et al. An antioxidant substance capable of donating a
(§2) hydrogen atom to a solution containing DPPH- can reduce the stable free radical, causing the solution
(§3) to change color from violet to pale yellow. The remaining DPPH- radical was quantified by
(§4) nm using a spectroscopic method. Two milliliters of a DPPH solution (100 µM) in ethanol were mixed
(§5) with 2 mL of the sample (at each concentration). The reaction mixture for each concentration was
(§6) thoroughly vortexed and then incubated in the dark at room temperature for 30 minutes. The
(§7) absorbance was then measured spectrophotometrically at 518 nm against a blank (ethanol). For the
(§8) control, 2 mL of ethanol was added instead of the sample and run simultaneously with the test.
(§9) Ascorbic acid was used at the same concentrations as a positive control. Percent inhibition of the
(§10) DPPH free radical was calculated. The median inhibitory concentration (IC 50) for each tested
The procedure for the 2,2'-azinobis-(3-ethylbenzothiazoline-6-sulfonic acid) (ABTS) assay
potassium persulfate solution (2.4 mM). The working solution was prepared by mixing the two stock
solutions in equal quantities and allowing them to react at room temperature in a dark place for 14
hours. The solution was then diluted by mixing 1 mL of ABTS solution with 60 mL of methanol to
was prepared for each assay. The tested samples (at each concentration) were allowed to react with 1
mL of the ABTS solution, and the absorbance was taken at 734 nm after 7 minutes using a
spectrophotometer. The ABTS scavenging capacities of the samples were compared with that of
ascorbic acid (at the same concentrations).

α-amylase = assay: α-Amylase inhibition (anti-diabetic); format: biochemical; settings: equal concentrations (1000 µg/mL); mean ± SE
[4] = target: acetylcholinesterase (AChE) (Homo sapiens, UniProt P22303); assay: biochemical; settings: same concentration (1000 µg/mL); mean ± SE
[5] = system: proteinase enzyme (trypsin); assay: Proteinase enzyme inhibition (anti-inflammatory); format: biochemical; settings: equal concentrations (1000 µg/mL); mean ± SE
[6] = Cytotoxic activity, MTT assay, normal lung (WI-38); format: cell-based; settings: human, WI-38 normal lung cells; for IC50 at 48 h: MTT, mean ± SE, read-out: Cytotoxic activity IC50, Normal Lung (WI-38)
[7] = target: bovine serum albumin (BSA) (Bos taurus, UniProt P02769); settings: equal concentrations (1000 µg/mL); mean ± SE
[8] = Total antioxidant capacity (TAC), phosphomolybdenum method; settings: equal concentrations (1000 µg/mL); mean ± SE, three replicates
caspase-3 [9] = assay: Caspase-3 ELISA in treated A549 cells; format: cell-based, human; settings: DMSO control 85.92 ± 0.12
[10] = ABTS radical scavenging assay; settings: equal concentrations (1000 µg/mL); mean ± SE
[11] = system: human lung cancer (A549) cell line; assay: Cytotoxic activity, MTT assay, lung (A549); settings: for Viability %, A549, 1st concentration: Conc.: 5a 13.45, 5d 12.64, 5e 12.29, 5f 11.81, 7a 12.72, 7f 11.24, DOX 11.50; for Viability %, A549, 2nd concentration: Conc.: 5a 26.91, 5d 25.27, 5e 24.58, 5f 23.63, 7a 25.43, 7f 22.48, DOX 23.00; for Viability %, A549, 3rd concentration: Conc.: 5a 53.81, 5d 50.55, 5e 49.15, 5f 47.26, 7a 50.86, 7f 44.96, DOX 46.00; for Viability %, A549, 4th concentration: Conc.: 5a 107.63, 5d 101.09, 5e 98.31, 5f 94.51, 7a 101.72, 7f 89.93, DOX 91.99; for Viability %, A549, 5th concentration: Conc.: 5a 215.26, 5d 202.19, 5e 196.61, 5f 189.03, 7a 203.44, 7f 179.85, DOX 183.99; for IC50: Homo sapiens, A549, 48 h, read-out: Cytotoxic activity IC50, Lung (A549)
Protocol: It will be assayed against human lung cancer (A549) and colon (Caco-2) cell line in
comparison with normal lung (WI-38) cell line using 3-(4,5-dimethythiazol-2-yl)-2,5-diphenyl
tetrazolium bromide (MTT) assay by determining the optical density (OD) at 570 nm according to the
The cells were dispensed in a 96-well sterile microplate (3
µL of each compound or doxorubicin (positive control, in DMSO) for 48 h in a serum free medium
prior to the MTT assay. Subsequently, the media were carefully removed, and 40 µL of MTT (2.5
mg/mL) was added to each well and then incubated for an additional 4 h. Purple formazan dye
crystals were solubilized by the addition of 200 µL of DMSO. The absorbance was measured at 570 nm using a SpectraMax Paradigm Multi-Mode microplate reader. The relative cell viability was
experiments were conducted in triplicate. Percent of the cell-growth inhibition (%) and the IC 50 was
calculated using IC 50 calculation software. The concentrations used for calculating the IC 50 depend on

caspase-3 [12] = assay: Caspase-3 ELISA in treated Caco-2 cells; format: cell-based, human; settings: DMSO control 97.06 ± 0.14
Bcl-2 [13] = assay: Bcl-2 ELISA in treated Caco-2 cells; format: cell-based, human; settings: DMSO control 7.99 ± 0.08
[14] = DPPH radical-scavenging activity; settings: read-out: DPPH (IC50); mean ± SE, three replicates
Protocol: In vitro biological activities
as §1, §2, §3, §4, §5, §6, §7, §8, §9, §10

[15] = Conc. as printed: 5a 53.81, 5d 50.55, 5e 49.15, 5f 47.26, 7a 50.86, 7f 44.96, DOX 46.00, read-out: Viability %, WI-38, 3rd concentration
[16] = Conc. as printed: 5a 107.63, 5d 101.09, 5e 98.31, 5f 94.51, 7a 101.72, 7f 89.93, DOX 91.99, read-out: Viability %, WI-38, 4th concentration
[17] = Conc.: 5a 13.45, 5d 12.64, 5e 12.29, 5f 11.81, 7a 12.72, 7f 11.24, DOX 11.50, read-out: Viability %, WI-38, 1st concentration
[18] = Conc.: 5a 26.91, 5d 25.27, 5e 24.58, 5f 23.63, 7a 25.43, 7f 22.48, DOX 23.00, read-out: Viability %, WI-38, 2nd concentration
[19] = Conc.: 5a 215.26, 5d 202.19, 5e 196.61, 5f 189.03, 7a 203.44, 7f 179.85, DOX 183.99, read-out: Viability %, WI-38, 5th concentration

Chain of bovine serum albumin (BSA) (P02769 25-607): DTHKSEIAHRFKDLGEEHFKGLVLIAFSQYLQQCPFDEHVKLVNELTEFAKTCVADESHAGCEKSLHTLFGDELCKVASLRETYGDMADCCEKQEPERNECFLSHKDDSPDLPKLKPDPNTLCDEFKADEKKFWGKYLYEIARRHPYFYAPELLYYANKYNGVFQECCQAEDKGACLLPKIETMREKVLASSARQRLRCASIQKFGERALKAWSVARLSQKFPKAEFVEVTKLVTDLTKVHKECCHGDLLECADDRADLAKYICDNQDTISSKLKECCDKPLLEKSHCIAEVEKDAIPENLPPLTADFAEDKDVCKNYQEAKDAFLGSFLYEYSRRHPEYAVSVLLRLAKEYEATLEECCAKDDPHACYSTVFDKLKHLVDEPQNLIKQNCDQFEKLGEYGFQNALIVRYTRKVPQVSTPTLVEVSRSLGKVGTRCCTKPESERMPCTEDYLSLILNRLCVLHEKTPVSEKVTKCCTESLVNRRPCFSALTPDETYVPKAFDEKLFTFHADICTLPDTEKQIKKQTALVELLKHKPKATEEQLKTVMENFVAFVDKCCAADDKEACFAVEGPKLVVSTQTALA
Chain of acetylcholinesterase (AChE) (P22303 32-614, species assumed): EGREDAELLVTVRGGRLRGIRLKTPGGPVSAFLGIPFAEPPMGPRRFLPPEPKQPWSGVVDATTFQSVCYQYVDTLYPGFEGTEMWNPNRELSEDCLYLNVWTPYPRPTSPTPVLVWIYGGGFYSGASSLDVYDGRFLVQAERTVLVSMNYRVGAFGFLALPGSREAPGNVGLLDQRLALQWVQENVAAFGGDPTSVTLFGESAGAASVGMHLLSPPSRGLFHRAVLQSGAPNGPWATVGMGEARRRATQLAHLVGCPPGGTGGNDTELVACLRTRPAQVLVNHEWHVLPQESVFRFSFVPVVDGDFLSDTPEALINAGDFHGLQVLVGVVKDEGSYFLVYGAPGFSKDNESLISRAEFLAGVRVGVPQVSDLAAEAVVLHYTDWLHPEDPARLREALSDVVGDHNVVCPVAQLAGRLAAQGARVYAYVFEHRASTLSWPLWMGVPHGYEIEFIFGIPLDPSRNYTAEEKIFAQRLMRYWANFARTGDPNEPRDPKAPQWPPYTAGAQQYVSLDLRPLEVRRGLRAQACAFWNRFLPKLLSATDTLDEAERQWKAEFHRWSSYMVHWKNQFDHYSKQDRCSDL

Row | Structure (SMILES) | Viability %, Caco-2, 1st concentration [1] [%] | Viability %, Caco-2, 2nd concentration [1] [%] | Viability %, Caco-2, 3rd concentration [1] [%] | Viability %, Caco-2, 4th concentration [1] [%] | Viability %, Caco-2, 5th concentration [1] [%] | IC50 [1] [µM] | Therapeutic Index (TI), Colon (Caco-2) [1] | Bcl-2 level, Lung (A549) (Bcl-2 [2]) [ng/mL] | Inhibition (%) α-Glucosidase (α-glucosidase) [%] | Iron-Reducing Power (IRP) [3] [µg/mL] | Inhibition (%) α-Amylase (α-amylase) [%] | inhibition at 1000 µg/mL [4] [%] | Inhibition (%) Proteinase [5] [%] | viability at 48 h [6, 15] [%] | viability at 48 h [6, 16] [%] | viability at 48 h [6, 17] [%] | viability at 48 h [6, 18] [%] | viability at 48 h [6, 19] [%] | IC50 at 48 h [6] [µM] | Inhibition (%) Protein Denaturation [7] [%] | further results
1 | COc1ccc(Nc2n[nH]c(/N=C/c3ccc(N4CCCCC4)cc3)c2C(=O)Nc2ccc(C)cc2)cc1 [5e] | 70.21 | 50.65 | 40.04 | 26.27 | 11.43 | 40.99 ± 0.2 | 15.81 | 3.93 ± 0.02 | 27.37 ± 0.05 | 34.91 ± 0.07 | 31.83 ± 0.05 | 42.83 ± 0.03 | 23.76 ± 0.03 | 81 | 65.7 | 92.9 | 87 | 38.3 | 648 ± 7.57 | 27.33 ± 0.03 | Total Antioxidant Capacity (TAC) [8]: 53.23 ± 0.20 mg Gallic Acid/g; Caspase-3 level, Lung (A549) (caspase-3 [9]): 214.81 ± 0.30 pg/mL; ABTS (%) inhibition [10]: 76.87 ± 0.05%; Viability %, A549, 1st concentration [11]: 90.96%; Viability %, A549, 2nd concentration [11]: 79.91%; Viability %, A549, 3rd concentration [11]: 48.51%; Viability %, A549, 4th concentration [11]: 37.08%; Viability %, A549, 5th concentration [11]: 18.60%; IC50 [11]: 47.74 ± 0.2 µM; Caspase-3 level, Colon (Caco-2) (caspase-3 [12]): 315.45 ± 0.46 pg/mL; Bcl-2 level, Colon (Caco-2) (Bcl-2 [13]): 2.46 ± 0.02 ng/mL; IC50 [14]: 23.71 ± 0.01 µM
2 | COc1ccc(Nc2n[nH]c(N=Cc3ccc(N4CCCCC4)cc3)c2C(=O)Nc2ccc(Cl)cc2)cc1 [5f] | 89.43 | 80.91 | 61.88 | 39.72 | 32.34 | 61.98 ± 0.12 | 7.95 | 3.57 ± 0.02 | 27.33 ± 0.05 | 34.85 ± 0.07 | 31.77 ± 0.05 | 42.76 ± 0.03 | 23.72 ± 0.03 | 76 | 60.7 | 87.9 | 82 | 44.8 | 493 ± 9.88 | 27.28 ± 0.03 | Total Antioxidant Capacity (TAC) [8]: 53.14 ± 0.20 mg Gallic Acid/g; Caspase-3 level, Lung (A549) (caspase-3 [9]): 236.29 ± 0.33 pg/mL; ABTS (%) inhibition [10]: 76.74 ± 0.05%; Viability %, A549, 1st concentration [11]: 97.46%; Viability %, A549, 2nd concentration [11]: 87.31%; Viability %, A549, 3rd concentration [11]: 60.91%; Viability %, A549, 4th concentration [11]: 46.48%; Viability %, A549, 5th concentration [11]: 20.20%; IC50 [11]: 60.45 ± 0.12 µM; Caspase-3 level, Colon (Caco-2) (caspase-3 [12]): 266.92 ± 0.39 pg/mL; Bcl-2 level, Colon (Caco-2) (Bcl-2 [13]): 2.91 ± 0.03 ng/mL; IC50 [14]: 22.83 ± 0.01 µM
